One data set concerns the target T1, human glucagon receptor (Homo sapiens, UniProt P47871).
T1 construct: expressed in transfected cells
In words: cAMP response (HTRF) of HEK-293 cells stably expressing human glucagon receptor. The note with it: formed cAMP. Format: cell-based. Here is the method:
(§1) cAMP content of cells was determined using a kit from Cisbio Corp. (cat. no. 62AM4PEC) based on HTRF (Homogenous Time Resolved Fluorescence). For preparation, cells were split into T175 culture flasks and grown overnight to near confluency in medium (DMEM/10% FBS). Medium was then removed and cells washed with PBS lacking calcium and magnesium, followed by proteinase treatment with accutase (Sigma-Aldrich cat. no. A6964). Detached cells were washed and resuspended in assay buffer (1×HBSS; 20 mM HEPES, 0.1% BSA, 2 mM IBMX) and cellular density determined. They were then diluted to 400000 cells/ml and 25 μl-aliquots dispensed into the wells of 96-well plates. For measurement, 25 μl of test compound in assay buffer was added to the wells, followed by incubation for 30 minutes at room temperature.
(In general: In TR-FRET formats the signal depends on donor and acceptor labels being close together.)

In another data set the target is T2, human GIP receptor (Homo sapiens, UniProt P48546).
T2 construct: expressed in transfected cells
T2 sequence (P48546 22-466): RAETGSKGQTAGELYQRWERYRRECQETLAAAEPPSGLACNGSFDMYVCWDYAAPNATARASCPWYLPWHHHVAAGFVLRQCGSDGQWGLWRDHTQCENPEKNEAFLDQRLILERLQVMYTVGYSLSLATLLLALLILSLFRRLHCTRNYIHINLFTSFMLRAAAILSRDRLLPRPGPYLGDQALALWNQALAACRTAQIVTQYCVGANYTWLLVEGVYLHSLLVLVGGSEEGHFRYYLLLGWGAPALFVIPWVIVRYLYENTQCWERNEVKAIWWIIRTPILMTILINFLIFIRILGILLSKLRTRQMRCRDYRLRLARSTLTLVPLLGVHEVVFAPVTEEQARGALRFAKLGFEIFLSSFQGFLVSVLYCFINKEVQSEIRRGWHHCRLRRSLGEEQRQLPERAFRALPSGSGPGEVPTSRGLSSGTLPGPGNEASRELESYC
Kind of data set: cAMP response (HTRF) of HEK-293 cells stably expressing human GIP receptor. To be noted: Table 1; formed cAMP; read-out: EC50 hGIP R. The format is cell-based. Here is the method: as §1

The next data set can be described thus: physchem. Format: physicochemical.
The next data set has as its target T3, human GLP-1 receptor (Homo sapiens, UniProt P43220).
T3 construct: expressed in transfected cells
In words: cAMP response (HTRF) of HEK-293 cells stably expressing human GLP-1 receptor. Format: cell-based. The note with it: Table 6; formed cAMP; read-out: EC50 hGLP-1 R. Here is the method:
as §1

The mark [1] stands for this setting: Table 6, read-out: EC50 hGLUC R.

Converted amounts (≈) assume the structure as drawn. Read-outs that look alike come from different tables or passages of the source.

T3 sequence (P43220 24-463): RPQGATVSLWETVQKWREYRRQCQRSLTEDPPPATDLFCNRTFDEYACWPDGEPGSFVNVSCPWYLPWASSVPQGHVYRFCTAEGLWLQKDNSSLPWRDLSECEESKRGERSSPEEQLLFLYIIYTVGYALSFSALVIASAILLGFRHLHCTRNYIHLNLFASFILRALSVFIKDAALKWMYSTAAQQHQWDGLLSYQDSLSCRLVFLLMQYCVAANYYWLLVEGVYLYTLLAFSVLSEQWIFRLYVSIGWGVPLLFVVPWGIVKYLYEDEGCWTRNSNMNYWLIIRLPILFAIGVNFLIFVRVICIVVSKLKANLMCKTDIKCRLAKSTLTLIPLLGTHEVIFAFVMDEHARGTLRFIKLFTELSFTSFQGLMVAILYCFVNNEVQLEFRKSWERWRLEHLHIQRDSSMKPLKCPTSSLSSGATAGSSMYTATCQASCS
T1 sequence (P47871 26-477): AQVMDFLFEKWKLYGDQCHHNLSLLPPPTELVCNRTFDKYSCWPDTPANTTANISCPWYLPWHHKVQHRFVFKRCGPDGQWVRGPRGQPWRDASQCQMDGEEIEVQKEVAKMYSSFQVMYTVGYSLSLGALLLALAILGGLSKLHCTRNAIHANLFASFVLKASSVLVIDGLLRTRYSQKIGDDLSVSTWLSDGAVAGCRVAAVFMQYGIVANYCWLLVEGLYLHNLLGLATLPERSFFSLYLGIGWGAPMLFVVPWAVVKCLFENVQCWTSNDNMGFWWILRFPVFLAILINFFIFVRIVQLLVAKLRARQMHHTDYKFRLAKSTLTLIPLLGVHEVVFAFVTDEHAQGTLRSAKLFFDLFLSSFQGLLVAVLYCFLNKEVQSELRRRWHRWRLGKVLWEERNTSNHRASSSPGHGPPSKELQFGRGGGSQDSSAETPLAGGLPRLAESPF

As a reminder, the EC50 is the concentration needed to bring the measured effect to its halfway point. By solubility is commonly meant how much of the substance goes into solution per volume. Low values mean a poorly soluble substance, high ones a readily soluble substance. For the molecule `CC[C@H](C)[C@H](NC(=O)[C@H](CO)NC(=O)[C@H](CC(C)C)NC(=O)[C@H](CC(=O)O)NC(=O)[C@H](CO)NC(=O)[C@@H](NC(=O)[C@H](Cc1ccccc1)NC(=O)[C@@H](NC(=O)CNC(=O)[C@H](CCC(=O)O)NC(=O)C(C)(C)NC(=O)[C@@H](N)Cc1ccc(O)cc1)[C@@H](C)O)[C@@H](C)O)C(=O)N[C@@H](CCC(N)=O)C(=O)N[C@@H](CC(C)C)C(=O)N[C@@H](CCC(=O)O)C(=O)N[C@@H](CCCCN)C(=O)N[C@@H](CCC(=O)O)C(=O)N[C@@H](C)C(=O)N[C@H](C(=O)N[C@@H](CCCNC(=N)N)C(=O)N[C@@H](CC(C)C)C(=O)N[C@@H](Cc1ccccc1)C(=O)N[C@H](C(=O)N[C@@H](CCC(=O)O)C(=O)N[C@@H](Cc1c[nH]c2ccccc12)C(=O)N[C@@H](CC(C)C)C(=O)N[C@@H](CCCCN)C(=O)N[C@@H](C)C(=O)NCC(=O)NCC(=O)N1CCC[C@H]1C(=O)N[C@@H](CO)C(=O)N[C@@H](CO)C(=O)NCC(=O)N[C@@H](C)C(=O)N1CCC[C@H]1C(=O)N1CCC[C@H]1C(=O)N1CCC[C@H]1C(=O)N[C@@H](CO)C(N)=O)[C@@H](C)CC)C(C)C` [SEQ ID NO 10, Y-Aib-EGTFTSDLSIQLEKEAVRLFIEWLKAGGPSSGAPPPS-NH2], the EC50 at human glucagon receptor (Table 1, read-out: EC50 hGlucagon R) is over 10000 nM; at human GIP receptor it was 12.5 nM. Moreover, the solubility in “physchem” (pH 4.5) was 934 µg/mL (≈ 224 µM); in the data set “physchem” (pH 7.4), over 1000 µg/mL.

`CCCC[C@H](NC(=O)[C@H](CCC(N)=O)NC(=O)[C@@H](NC(=O)[C@H](CO)NC(=O)[C@H](CC(C)C)NC(=O)[C@H](CC(=O)O)NC(=O)[C@H](CO)NC(=O)[C@@H](NC(=O)[C@H](Cc1ccccc1)NC(=O)[C@@H](NC(=O)CNC(=O)[C@H](CCC(=O)O)NC(=O)C(C)(C)NC(=O)[C@@H](N)Cc1ccc(O)cc1)[C@@H](C)O)[C@@H](C)O)[C@@H](C)CC)C(=O)N[C@@H](CCC(=O)O)C(=O)N[C@@H](CCCCN)C(=O)N[C@@H](CCC(=O)O)C(=O)N[C@@H](C)C(=O)N[C@H](C(=O)N[C@@H](CCCNC(=N)N)C(=O)N[C@@H](CC(C)C)C(=O)N[C@@H](Cc1ccccc1)C(=O)N[C@H](C(=O)N[C@@H](CCC(=O)O)C(=O)N[C@@H](Cc1c[nH]c2ccccc12)C(=O)N[C@@H](CC(C)C)C(=O)N[C@@H](CCCCN)C(=O)N[C@@H](C)C(=O)NCC(=O)NCC(=O)N1CCC[C@H]1C(=O)N[C@@H](CO)C(=O)N[C@@H](CO)C(=O)NCC(=O)N[C@@H](C)C(=O)N1CCC[C@H]1C(=O)N1CCC[C@H]1C(=O)N1CCC[C@H]1C(=O)N[C@@H](CO)C(N)=O)[C@@H](C)CC)C(C)C` [compound 11]: the figures for the EC50 on human glucagon receptor (setting [1]) and on human GLP-1 receptor were over 1000 nM and 0.001 nM, respectively. The solubility at 2 h in “physchem” (pH 4.5) is 911 µg/mL (≈ 219 µM); in “physchem” (pH 7.4) it was over 1000 µg/mL.

Take `CC[C@H](C)[C@H](NC(=O)[C@H](CO)NC(=O)[C@H](CC(C)C)NC(=O)[C@H](CC(=O)O)NC(=O)[C@H](CO)NC(=O)[C@@H](NC(=O)[C@H](Cc1ccccc1)NC(=O)[C@@H](NC(=O)CNC(=O)[C@H](CCC(=O)O)NC(=O)C(C)(C)NC(=O)[C@@H](N)Cc1ccc(O)cc1)[C@@H](C)O)[C@@H](C)O)C(=O)N[C@@H](CCC(N)=O)C(=O)N[C@@H](CC(C)C)C(=O)N[C@@H](CCC(=O)O)C(=O)N[C@@H](CCC(=O)O)C(=O)N[C@@H](CCC(=O)O)C(=O)N[C@@H](C)C(=O)N[C@H](C(=O)N[C@@](C)(CCCN)C(=O)N[C@@H](CC(C)C)C(=O)N[C@@H](Cc1ccccc1)C(=O)N[C@H](C(=O)N[C@@H](CCC(=O)O)C(=O)N[C@@H](Cc1c[nH]c2ccccc12)C(=O)N[C@@H](CC(C)C)C(=O)N[C@@H](CCCCN)C(=O)N[C@@H](C)C(=O)NCC(=O)NCC(=O)N1CCC[C@H]1C(=O)N[C@@H](CO)C(=O)N[C@@H](CO)C(=O)NCC(=O)N[C@@H](C)C(=O)N1CCC[C@H]1C(=O)N1CCC[C@H]1C(=O)N1CCC[C@H]1C(=O)N[C@@H](CO)C(N)=O)[C@@H](C)CC)C(C)C` [compound 19]: the EC50 on human glucagon receptor (setting [1]) was over 1000 nM; at human GLP-1 receptor, 0.0012 nM.

Consider `CCCC[C@H](NC(=O)[C@H](CCC(N)=O)NC(=O)[C@@H](NC(=O)[C@H](CO)NC(=O)[C@H](CC(C)C)NC(=O)[C@H](CC(=O)O)NC(=O)[C@H](CO)NC(=O)[C@@H](NC(=O)[C@H](Cc1ccccc1)NC(=O)[C@@H](NC(=O)CNC(=O)[C@H](CCC(=O)O)NC(=O)C(C)(C)NC(=O)[C@@H](N)Cc1ccc(O)cc1)[C@@H](C)O)[C@@H](C)O)[C@@H](C)CC)C(=O)N[C@@H](CCC(=O)O)C(=O)N[C@@H](CCCCN)C(=O)N[C@@H](CCC(=O)O)C(=O)N[C@@H](C)C(=O)N[C@H](C(=O)N[C@@H](CCCNC(=N)N)C(=O)N[C@@H](CC(C)C)C(=O)N[C@@H](Cc1ccccc1)C(=O)N[C@H](C(=O)N[C@@H](CCC(=O)O)C(=O)N[C@@H](Cc1c[nH]c2ccccc12)C(=O)N[C@@H](CC(C)C)C(=O)N[C@@H](CCCCN)C(=O)N[C@@H](C)C(=O)NCC(=O)NCC(=O)N1CCC[C@H]1C(=O)N[C@@H](CO)C(=O)N[C@@H](CO)C(=O)NCC(=O)N[C@@H](C)C(=O)N1CCC[C@H]1C(=O)N1CCC[C@H]1C(=O)N1CCC[C@H]1C(=O)N[C@@H](CO)C(=O)N[C@@H](CCCCN)C(N)=O)[C@@H](C)CC)C(C)C` [compound 12], for which the EC50 at human glucagon receptor (setting [1]) was over 1000 nM; on human GLP-1 receptor, 0.0013 nM. Besides, the solubility at 2 h came out at 943 µg/mL (≈ 220 µM) in the data set “physchem” (pH 4.5) and 848 µg/mL (≈ 198 µM) in “physchem” (pH 7.4).

`CC[C@H](C)[C@H](NC(=O)[C@H](CO)NC(=O)[C@H](CC(C)C)NC(=O)[C@H](CC(=O)O)NC(=O)[C@H](CO)NC(=O)[C@@H](NC(=O)[C@H](Cc1ccccc1)NC(=O)[C@@H](NC(=O)CNC(=O)[C@H](CCC(=O)O)NC(=O)C(C)(C)NC(=O)[C@@H](N)Cc1ccc(O)cc1)[C@@H](C)O)[C@@H](C)O)C(=O)N[C@@H](CCC(N)=O)C(=O)N[C@@H](CC(C)C)C(=O)N[C@@H](CCC(=O)O)C(=O)N[C@@H](CCCCN)C(=O)N[C@@H](CCC(=O)O)C(=O)N[C@@H](C)C(=O)N[C@H](C(=O)N[C@@H](CCCNC(=N)N)C(=O)N[C@@H](CC(C)C)C(=O)N[C@@H](Cc1ccccc1)C(=O)N[C@H](C(=O)N[C@@H](CCC(=O)O)C(=O)N[C@@H](Cc1c[nH]c2ccccc12)C(=O)N[C@@H](CC(C)C)C(=O)N[C@@H](CCCCN)C(=O)N[C@@H](C)C(=O)NCC(=O)NCC(=O)N1CCC[C@H]1C(=O)N[C@@H](CO)C(=O)N[C@@H](CO)C(=O)NCC(=O)N[C@@H](C)C(=O)N1CCC[C@H]1C(=O)N1CCC[C@H]1C(=O)N1CCC[C@H]1C(=O)N[C@@H](CO)C(N)=O)[C@@H](C)CC)C(C)C` [compound 20]: the EC50 at human glucagon receptor (setting [1]) is over 1000 nM; at human GLP-1 receptor, 0.001 nM.

(Values after patent US9751926B2 (priority 2013, dated 2017).)
